From a melting point compilation (Tetko et al.; mined from patent text by program, amines drawn as free bases though some values may be those of a salt)

Row | SMILES | melting point [°C]
1 | CC(CN(C)C)OC(=O)c1ccc(NC(=O)CCn2cnc3c(=O)[nH]cnc32)cc1 (centres undefined) | 270 to 275
2 | NC(=NC(=O)c1nc(Cl)c(N)nc1N)NCCCCCCCCCCCC(=O)O | 194 to 196
3 | N#Cc1nn(-c2c(Cl)cc(C(F)(F)F)cc2Cl)c(N)c1-c1ccc(Br)s1 | 214
4 | O=C(c1cccc(F)c1)N1CCc2cc(S(=O)(=O)N3CC(c4ccccc4)NC3=O)ccc21 (centres undefined) | 202
5 | CC1(C)CC(OC(=O)c2cccc(C(=O)OC3CC(C)(C)N(OC4CCCCC4)C(C)(C)C3)c2)CC(C)(C)N1OC1CCCCC1 | 135 to 141
6 | CC(=O)Nc1ccc(C#N)c(F)c1 | 190 to 192
7 | CC(=O)Nc1nc(CCc2ccc(C#N)cc2)cs1 | 205 to 206
8 | CN(C)Cc1ccc(CSCCNC2=NS(=O)(=O)C(S(C)(=O)=O)=C2N)o1 | 187 to 189
9 | COCC1C(=O)C(C)(C)C(=O)N1c1ccc(C#N)c(Cl)c1 (centres undefined) | 98 to 99
10 | CCCCCCCCOc1cc(-c2cccc([N+](=O)[O-])c2)c(OCC(=O)O)c(-c2cccc([N+](=O)[O-])c2)c1 | 129 to 132
11 | COc1cccc2c1nc(C(F)F)n2-c1nc(Nc2ccncn2)nc(N2CCOCC2)n1 | 234 to 236
12 | COC(=O)c1c(C)nc2c(c1N)c1cc(Cl)ccc1n2C | 203 to 211
13 | CNC(=O)c1cc2c(nc(C)n2C)c2c1CCC(c1ccccc1)N2 (centres undefined) | 259
14 | CC1NC(=O)NN=C1c1ccc2sc(=O)n(CC(=O)N3CCN(CCO)CC3)c2c1 (centres undefined) | 248 to 250
15 | Cc1cccc(-c2nc3ccccn3c2-c2ccnc(-c3ccc(NS(=O)(=O)C(F)(F)F)cc3)c2)n1 | 135
16 | CCOC(=O)c1ncn2c1CN=C(c1ccccc1Cl)c1cc([N+](=O)[O-])ccc1-2 | 250 to 252
17 | CCCCCCc1ccc(CCCCC(NC(C)=O)(C(=O)OCC)C(=O)OCC)cc1 | 57 to 58
18 | CCOC(=O)c1cn2c3c(c(F)c(F)c(N)c3c1=O)CCN2C | 255 to 257
19 | COc1nc(C)c(N2CCCn3c2nc2c(C#N)ccc(C(OC(F)F)C(F)(F)F)c23)c(C)n1 (centres undefined) | 250 to 252
20 | Cc1c(C(N)=O)c2ccccc2n2c(N3CCCC3)nc(-c3noc(C(C)C)n3)c12 | 173 to 174
21 | CN1CCC(c2cc3ccccc3c(=O)[nH]2)CC1 | 255 to 257
22 | O=c1cc(-c2ccncn2)nc2n1CCCN2 | 268 to 272
23 | Oc1ccc(C2=C(c3ccc(OCCCCCSCCCC(F)(F)C(F)(F)F)cc3)c3ccc(O)cc3CCC2)cc1 | 157 to 158
24 | CCOC(=O)Cc1csc(NS(C)(=O)=O)n1 | 207 to 208
25 | COc1ccccc1C(=O)c1ccc(Cl)nc1 | 46 to 47

Row | SMILES | melting point [°C]
26 | COC1c2c(ccc3cnn(CC(C)N)c23)OCC1O (centres undefined) | 105 to 108
27 | CCCn1cc(Cc2ccc(C(=O)OC)cc2OC)c2cc(C=C(C)C(=O)O)ccc21 | 159 to 161
28 | CCC(CC1(c2ccc(Cl)c(Cl)c2)CCC1)=NO | 106 to 110
29 | Cc1csc2[nH]c(C(=O)c3ccccc3)cc12 | 199
30 | COCc1ccc2c(c1S(=O)(=O)NC(=O)Nc1nc(C)cc(OC)n1)S(=O)(=O)C(C)C2 (centres undefined) | 215 to 216
31 | CC(CC=CC=CCC(=O)O)C1CCC2C3CCC4CC(O)CCC4(C)C3CC(O)C12C (centres undefined) | 208 to 211
32 | O=C(COc1cc(C(=O)N2CCOCC2)ccc1[N+](=O)[O-])c1ccccc1 | 172 to 173
33 | Cc1cc(CNS(=O)(=O)c2ccc(Br)s2)cc(C)n1 | 138
34 | O=[N+]([O-])c1cnc2ccc(O)cc2c1-c1ccccc1 | 282 to 284
35 | CCOC(=O)C1COc2c(OC)ccc([N+](=O)[O-])c2C1 (centres undefined) | 66 to 68
36 | COc1ccc(S(=O)(=O)CNC=O)cc1 | 105 to 107
37 | Cc1cccc(-c2nc3ccc(Cl)nn3c2-c2ccnc(Nc3ccc(F)cc3C)c2)c1 | 191 to 192
38 | Cc1cc(Cl)ccc1C(=O)NN(CCF)CCF | 85 to 87
39 | O=[N+]([O-])c1ccc(CN2CCC(C(c3ccccc3)c3ccccc3)CC2)cc1 | 130 to 131
40 | CC1C(=O)Nc2ccc(Cl)cc2N1C1CC1 (racemic) | 167
41 | CC(C)(C)OC(=O)CN1C(=O)C=C(CC(NC(=O)OC(C)(C)C)C(=O)OC(C)(C)C)C1=O (centres undefined) | 88.5 to 89.5
42 | Cc1cc(C#N)cn2cc(-c3ccc(Br)o3)nc12 | 204 to 205
43 | CCOC(=O)C1(C)CN(Cc2ccccc2)C(=O)C(=C2SC=CS2)C1=O (centres undefined) | 111 to 113
44 | O=C(Nc1nccs1)c1nc(-c2ccc([N+](=O)[O-])cc2)[nH]c1-c1ccc(CCl)cc1 | > 280
45 | COc1ccc(C2c3cc(NC(=O)CC(C)(C)C)c(C)c(C)c3OC2(C)C)cc1 (centres undefined) | 169 to 170
46 | CC(C)(C)OC(=O)Nc1ccc2c(c1)OCC(=O)N2 | 200 to 203
47 | COc1cc(NS(=O)(=O)c2cccs2)c2[nH]c(C3=NCCS3)cc2c1 | 188 to 189
48 | O=C(CCS(=O)C(c1ccccc1)c1ccccc1)NO (centres undefined) | 159 to 160
49 | COC(=O)CN1C(=O)[C@H](C(C)C)Oc2c(C(C)C)cccc21 | 67 to 68
